Experimental data: patent US20240269139A1, “COMPOUNDS FOR TARGETED PROTEIN DEGRADATION OF KINASES” (DANA-FARBER CANCER INSTITUTE, INC., priority 2020, published 2024)
Read-outs that look alike come from different tables or passages of the source.

Columns and labels:
Type in all cases: cell-based
[1] = target: T1, protein kinases (human kinome) (Homo sapiens, UniProt O14965)
T1 sequence (O14965 1-403): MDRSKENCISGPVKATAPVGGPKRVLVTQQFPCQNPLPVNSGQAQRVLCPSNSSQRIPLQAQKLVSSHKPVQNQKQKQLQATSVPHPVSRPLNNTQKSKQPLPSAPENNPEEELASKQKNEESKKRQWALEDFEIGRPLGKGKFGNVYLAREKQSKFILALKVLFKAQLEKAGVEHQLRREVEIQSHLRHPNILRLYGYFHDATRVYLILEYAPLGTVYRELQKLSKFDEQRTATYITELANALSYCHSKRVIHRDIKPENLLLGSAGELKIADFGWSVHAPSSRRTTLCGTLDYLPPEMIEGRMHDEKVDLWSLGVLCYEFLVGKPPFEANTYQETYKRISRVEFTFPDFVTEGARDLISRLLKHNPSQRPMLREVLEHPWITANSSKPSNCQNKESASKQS

[2] = target: T2, protein kinases (human kinome) (Homo sapiens, UniProt O14976); conditions: for logFC GAK: GAK (O14976)
T2 sequence (O14976 1-1311): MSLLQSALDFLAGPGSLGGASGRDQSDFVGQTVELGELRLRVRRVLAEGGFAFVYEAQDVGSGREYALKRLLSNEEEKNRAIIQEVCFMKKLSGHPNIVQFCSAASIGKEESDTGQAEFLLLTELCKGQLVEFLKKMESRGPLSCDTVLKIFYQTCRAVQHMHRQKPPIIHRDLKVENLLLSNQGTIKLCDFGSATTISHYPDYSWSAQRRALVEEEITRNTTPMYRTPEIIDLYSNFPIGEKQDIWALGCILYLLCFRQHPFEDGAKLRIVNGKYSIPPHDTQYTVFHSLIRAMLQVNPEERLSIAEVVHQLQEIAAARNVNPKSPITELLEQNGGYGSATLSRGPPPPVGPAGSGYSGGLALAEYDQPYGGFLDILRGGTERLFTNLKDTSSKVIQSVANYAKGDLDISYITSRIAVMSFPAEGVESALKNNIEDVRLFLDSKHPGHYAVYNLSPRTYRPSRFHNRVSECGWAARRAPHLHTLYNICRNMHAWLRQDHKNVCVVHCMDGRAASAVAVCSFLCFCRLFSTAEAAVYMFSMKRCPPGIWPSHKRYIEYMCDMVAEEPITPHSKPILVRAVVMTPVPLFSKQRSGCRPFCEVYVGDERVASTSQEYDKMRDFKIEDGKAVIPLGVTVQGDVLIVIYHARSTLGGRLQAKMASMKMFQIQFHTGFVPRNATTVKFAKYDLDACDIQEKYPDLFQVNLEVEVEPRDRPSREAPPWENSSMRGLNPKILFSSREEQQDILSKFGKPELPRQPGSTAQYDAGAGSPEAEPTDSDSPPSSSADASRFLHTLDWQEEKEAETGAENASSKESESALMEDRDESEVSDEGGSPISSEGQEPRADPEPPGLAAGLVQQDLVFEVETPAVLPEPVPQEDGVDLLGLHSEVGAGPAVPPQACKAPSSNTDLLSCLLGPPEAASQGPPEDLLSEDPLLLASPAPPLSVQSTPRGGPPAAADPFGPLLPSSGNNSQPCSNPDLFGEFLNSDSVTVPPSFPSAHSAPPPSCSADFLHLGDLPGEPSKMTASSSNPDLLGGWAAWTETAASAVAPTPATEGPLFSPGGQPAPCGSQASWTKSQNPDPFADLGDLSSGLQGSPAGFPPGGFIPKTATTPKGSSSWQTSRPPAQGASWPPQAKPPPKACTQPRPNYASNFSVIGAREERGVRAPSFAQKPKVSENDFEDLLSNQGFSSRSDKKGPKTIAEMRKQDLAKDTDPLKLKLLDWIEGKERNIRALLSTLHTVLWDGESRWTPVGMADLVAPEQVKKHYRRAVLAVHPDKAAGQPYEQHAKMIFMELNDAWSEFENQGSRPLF

[3] = target: protein kinases (human kinome) (Homo sapiens, UniProt P30291); conditions: for logFC of WEE1: WEE1 P30291-1
Chain of protein kinases (human kinome) (Homo sapiens, UniProt P30291) (P30291 whole entry): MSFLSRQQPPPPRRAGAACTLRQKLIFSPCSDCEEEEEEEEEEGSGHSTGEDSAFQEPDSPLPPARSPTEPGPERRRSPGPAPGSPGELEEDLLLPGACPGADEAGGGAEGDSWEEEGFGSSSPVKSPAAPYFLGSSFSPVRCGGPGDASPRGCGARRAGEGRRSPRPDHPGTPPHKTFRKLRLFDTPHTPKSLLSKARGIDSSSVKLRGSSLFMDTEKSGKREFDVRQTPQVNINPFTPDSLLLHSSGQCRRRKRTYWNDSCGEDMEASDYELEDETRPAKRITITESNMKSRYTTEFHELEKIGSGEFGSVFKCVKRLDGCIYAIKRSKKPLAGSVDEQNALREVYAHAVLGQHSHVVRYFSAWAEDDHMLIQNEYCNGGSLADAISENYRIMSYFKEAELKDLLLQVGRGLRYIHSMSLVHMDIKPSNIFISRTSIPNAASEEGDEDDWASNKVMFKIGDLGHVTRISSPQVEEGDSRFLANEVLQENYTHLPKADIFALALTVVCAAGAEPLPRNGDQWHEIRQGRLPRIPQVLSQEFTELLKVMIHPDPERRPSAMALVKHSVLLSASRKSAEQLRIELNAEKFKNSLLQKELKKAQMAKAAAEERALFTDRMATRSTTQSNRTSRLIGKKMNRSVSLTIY

[4] = target: protein kinases (human kinome) (Homo sapiens, UniProt P16591); conditions: for logFC of FER (P16591-1): down; for logFC of FER: FER P16591-1
Chain of protein kinases (human kinome) (Homo sapiens, UniProt P16591) (P16591 whole entry): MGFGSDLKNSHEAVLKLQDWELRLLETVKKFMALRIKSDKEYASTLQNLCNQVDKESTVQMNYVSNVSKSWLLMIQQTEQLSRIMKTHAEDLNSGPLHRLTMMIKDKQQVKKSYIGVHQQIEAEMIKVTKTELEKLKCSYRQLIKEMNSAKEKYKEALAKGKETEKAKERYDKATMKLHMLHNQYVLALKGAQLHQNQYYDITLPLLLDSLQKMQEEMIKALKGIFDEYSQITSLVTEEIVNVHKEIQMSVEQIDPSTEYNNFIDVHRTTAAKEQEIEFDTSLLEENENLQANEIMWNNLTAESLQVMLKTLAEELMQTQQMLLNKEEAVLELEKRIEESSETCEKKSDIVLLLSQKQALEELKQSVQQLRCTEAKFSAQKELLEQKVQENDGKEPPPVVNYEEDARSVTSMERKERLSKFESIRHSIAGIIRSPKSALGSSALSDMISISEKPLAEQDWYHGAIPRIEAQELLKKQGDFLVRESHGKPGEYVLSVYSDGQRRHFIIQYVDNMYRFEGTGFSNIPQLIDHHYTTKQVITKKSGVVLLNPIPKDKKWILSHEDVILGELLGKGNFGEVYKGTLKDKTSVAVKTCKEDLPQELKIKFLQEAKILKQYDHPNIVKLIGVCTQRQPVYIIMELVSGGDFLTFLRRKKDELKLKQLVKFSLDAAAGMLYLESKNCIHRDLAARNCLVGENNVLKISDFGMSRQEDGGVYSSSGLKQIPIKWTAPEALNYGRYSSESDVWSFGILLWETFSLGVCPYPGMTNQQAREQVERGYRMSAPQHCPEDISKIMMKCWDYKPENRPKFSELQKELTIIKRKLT

[5] = target: protein kinases (human kinome) (Homo sapiens, UniProt Q2M2I8)
Chain of protein kinases (human kinome) (Homo sapiens, UniProt Q2M2I8) (Q2M2I8 whole entry): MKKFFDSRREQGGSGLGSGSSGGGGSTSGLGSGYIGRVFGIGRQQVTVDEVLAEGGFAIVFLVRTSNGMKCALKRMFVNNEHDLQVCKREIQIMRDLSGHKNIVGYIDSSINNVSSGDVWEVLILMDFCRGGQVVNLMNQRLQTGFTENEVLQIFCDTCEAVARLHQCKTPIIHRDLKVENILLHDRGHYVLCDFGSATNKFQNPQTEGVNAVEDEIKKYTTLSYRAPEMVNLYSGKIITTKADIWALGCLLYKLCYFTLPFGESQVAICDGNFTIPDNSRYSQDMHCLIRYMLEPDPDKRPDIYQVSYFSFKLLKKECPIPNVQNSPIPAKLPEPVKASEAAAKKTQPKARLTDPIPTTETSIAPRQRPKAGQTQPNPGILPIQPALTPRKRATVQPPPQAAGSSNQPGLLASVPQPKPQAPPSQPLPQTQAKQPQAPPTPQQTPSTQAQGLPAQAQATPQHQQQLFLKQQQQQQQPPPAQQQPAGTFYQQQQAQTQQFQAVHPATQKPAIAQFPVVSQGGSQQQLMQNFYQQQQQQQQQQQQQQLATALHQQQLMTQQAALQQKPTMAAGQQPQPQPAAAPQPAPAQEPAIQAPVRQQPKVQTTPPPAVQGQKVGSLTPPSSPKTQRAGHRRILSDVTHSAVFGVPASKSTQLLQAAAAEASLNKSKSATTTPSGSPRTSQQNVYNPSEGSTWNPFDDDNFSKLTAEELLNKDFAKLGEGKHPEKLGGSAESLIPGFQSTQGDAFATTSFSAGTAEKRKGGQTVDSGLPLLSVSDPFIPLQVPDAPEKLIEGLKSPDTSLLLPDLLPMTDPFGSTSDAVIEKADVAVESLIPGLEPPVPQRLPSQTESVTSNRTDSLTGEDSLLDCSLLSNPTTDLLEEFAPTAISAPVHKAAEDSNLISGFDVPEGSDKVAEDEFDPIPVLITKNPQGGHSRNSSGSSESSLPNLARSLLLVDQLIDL

With `CC(C)S(=O)(=O)c1ccccc1Nc1nc(Nc2ccc(N3CCN(CCOCCNC(=O)CNc4cccc5c4C(=O)N(C4CCC(=O)NC4=O)C5=O)CC3)cc2)ncc1Cl` (stereo not drawn) [SK.3.91] the “logFC AURKA (O14965)” value ([1]; Experiment wp160, 2 hr) was −0.8456, the “logFC AURKA (O14965)” value ([1]; Experiment wp172) was −2.048 and the “logFC AURKA (O14965)” value ([1]; experiment wp016) was −1.908. For the same compound, the “logFC AURKA (O14965)” value ([1]; experiment wp016, 1 uM) was −3.024, the “logFC AURKA (O14965)” value ([1]; experiment wp103) was −1.587 and the “logFC AURKA (O14965)” value ([1]; experiment wp105) was −1.837. For the same compound, the “logFC AURKA (O14965)” value ([1]; experiment wp107) was −3.069, the “logFC AURKA (O14965)” value ([1]; experiment wp114) was −1.228 and the “logFC AURKA (O14965)” value ([1]; experiment wp133, 1 hr) was −1.329. For the same compound, the “logFC AURKA (O14965)” value ([1]; experiment wp133, 2 hr) was −2.092, the “logFC AURKA (O14965)” value ([1]; experiment wp133, 4 hr) was −3.745 and the “logFC AURKA (O14965)” value ([1]; experiment wp160, 1 hr) was −0.547. The “logFC AURKA (O14965)” value ([1]; experiment wp160, 4 hr) was −1.391, the “logFC of GAK (O14976)” value ([2]; Experiment wp016, 1 uM, down) was −0.3526 and the “logFC of GAK (O14976)” value ([2]; Experiment wp016, down) was −0.5011. The “logFC of GAK (O14976)” value ([2]; Experiment wp105, down) was −0.3832, the “logFC GAK” value ([2]; direction down, experiment wp016) was −0.5011 and the “logFC GAK” value ([2]; direction down, experiment wp018, 1 uM) was −0.3526. The “logFC GAK” value ([2]; direction down, experiment wp105) was −0.3832, the “logFC GAK” value ([2]; direction down, experiment wp160, 4 hr) was −0.3241 and the “logFC GAK” value ([2]; experiment wp160, 4 hr, down) was −0.3241. For the same compound, the “logFC WEE1 (P30291-1)” value ([3]; Experiment wp160, 2 hr) was −1.201, the “logFC WEE1 (P30291-1)” value ([3]; Experiment wp172) was −0.6853 and the “logFC of WEE1” value ([3]; experiment wp103) was −1.371. For the same compound, the “logFC of WEE1” value ([3]; experiment wp105) was −1.229, the “logFC of WEE1” value ([3]; experiment wp107) was −2.329 and the “logFC of WEE1” value ([3]; experiment wp133, 1 hr) was −0.4866. For the same compound, the “logFC of WEE1” value ([3]; experiment wp133, 2 hr) was −1.21, the “logFC of WEE1” value ([3]; experiment wp133, 4 hr) was −2.314 and the “logFC of WEE1” value ([3]; experiment wp160, 1 hr) was −0.5503. The “logFC of WEE1” value ([3]; experiment wp160, 2 hr) was −1.201, the “logFC of WEE1” value ([3]; experiment wp160, 4 hr) was −1.994 and the “logFC of WEE1” value ([3]; experiment wp172) was −0.6853. The “logFC WEE1 (P30291-1)” value ([3]; experiment wp016) was −1.278, the “logFC WEE1 (P30291-1)” value ([3]; experiment wp016, 1 uM) was −2.684 and the “logFC WEE1 (P30291-1)” value ([3]; experiment wp103) was −1.371. The “logFC WEE1 (P30291-1)” value ([3]; experiment wp105) was −1.229, the “logFC WEE1 (P30291-1)” value ([3]; experiment wp107) was −2.329 and the “logFC WEE1 (P30291-1)” value ([3]; experiment wp133, 1 hr) was −0.4866. The “logFC WEE1 (P30291-1)” value ([3]; experiment wp133, 2 hr) was −1.21, the “logFC WEE1 (P30291-1)” value ([3]; experiment wp133, 4 hr) was −2.314 and the “logFC WEE1 (P30291-1)” value ([3]; experiment wp160, 1 hr) was −0.5503. The “logFC WEE1 (P30291-1)” value ([3]; experiment wp160, 4 hr) was −1.994, the “logFC of FER (P16591-1)” value ([4]; Experiment wp016, 1 uM) was −3.321 and the “logFC of FER (P16591-1)” value ([4]; Experiment wp016) was −2.645. The “logFC of FER (P16591-1)” value ([4]; Experiment wp103) was −2.81, the “logFC of FER (P16591-1)” value ([4]; Experiment wp105) was −2.857 and the “logFC of FER (P16591-1)” value ([4]; Experiment wp107) was −2.657. For the same compound, the “logFC of FER (P16591-1)” value ([4]; Experiment wp133, 1 hr) was −1.132, the “logFC of FER (P16591-1)” value ([4]; Experiment wp133, 2 hr) was −2.153 and the “logFC of FER (P16591-1)” value ([4]; Experiment wp133, 4 hr) was −2.426. For the same compound, the “logFC of FER (P16591-1)” value ([4]; Experiment wp160, 1 hr) was −0.8534, the “logFC of FER (P16591-1)” value ([4]; Experiment wp160, 2 hr) was −1.88 and the “logFC of FER (P16591-1)” value ([4]; Experiment wp160, 4 hr) was −1.987. The “logFC of FER” value ([4]; experiment wp016) was −2.646, the “logFC of FER” value ([4]; experiment wp016, 1 uM) was −3.321 and the “logFC of FER” value ([4]; experiment wp103) was −2.81. The “logFC of FER” value ([4]; experiment wp105) was −2.857, the “logFC of FER” value ([4]; experiment wp107) was −2.657 and the “logFC of FER” value ([4]; experiment wp133, 1 hr) was −1.132. The “logFC of FER” value ([4]; experiment wp133, 2 hr) was −2.153, the “logFC of FER” value ([4]; experiment wp133, 4 hr) was −2.426 and the “logFC of FER” value ([4]; experiment wp160, 1 hr) was −0.8534. The “logFC of FER” value ([4]; experiment wp160, 2 hr) was −1.88, the “logFC of FER” value ([4]; experiment wp160, 4 hr) was −1.987 and the “logFC AAK1” value ([5]; AAK1 (Q2M218-1), experiment wp016, 1 uM, down) was −1.114. The “logFC AAK1” value ([5]; AAK1 (Q2M218-1), experiment wp016, down) was −1.364, the “logFC AAK1” value ([5]; AAK1 (Q2M218-1), experiment wp103, down) was −0.7763 and the “logFC AAK1” value ([5]; AAK1 (Q2M218-1), experiment wp105, down) was −1.575. For the same compound, the “logFC AAK1” value ([5]; AAK1 (Q2M218-1), experiment wp107, down) was −1.059, the “logFC AAK1” value ([5]; AAK1 (Q2M218-1), experiment wp114, down) was −0.8221 and the “logFC AAK1” value ([5]; AAK1 (Q2M218-1), experiment wp133, 2 hr, down) was −0.5506. For the same compound, the “logFC AAK1” value ([5]; AAK1 (Q2M218-1), experiment wp133, 4 hr, down) was −1.105, the “logFC AAK1” value ([5]; AAK1 (Q2M218-1), experiment wp160, 2 hr, down) was −0.5153 and the “logFC AAK1” value ([5]; AAK1 (Q2M218-1), experiment wp160, 4 hr, down) was −1.008. The “logFC AAK1” value ([5]; AAK1 (Q2M218-1), experiment wp172, down) was −0.9755, the “logFC AAK1” value ([5]; AAK1, accession Q2M218-1, experiment wp016, 1 uM, direction of change down) was −1.114 and the “logFC AAK1” value ([5]; AAK1, accession Q2M218-1, experiment wp016, direction of change down) was −1.364. For the same compound, the “logFC AAK1” value ([5]; AAK1, accession Q2M218-1, experiment wp103, direction of change down) was −0.7763, the “logFC AAK1” value ([5]; AAK1, accession Q2M218-1, experiment wp105, direction of change down) was −1.575 and the “logFC AAK1” value ([5]; AAK1, accession Q2M218-1, experiment wp107, direction of change down) was −1.059. The “logFC AAK1” value ([5]; AAK1, accession Q2M218-1, experiment wp114, direction of change down) was −0.8221, the “logFC AAK1” value ([5]; AAK1, accession Q2M218-1, experiment wp133, 2 hr, direction of change down) was −0.5506 and the “logFC AAK1” value ([5]; AAK1, accession Q2M218-1, experiment wp133, 4 hr, direction of change down) was −1.105. For the same compound, the “logFC AAK1” value ([5]; AAK1, accession Q2M218-1, experiment wp160, 2 hr, direction of change down) was −0.5153, the “logFC AAK1” value ([5]; AAK1, accession Q2M218-1, experiment wp160, 4 hr, direction of change down) was −1.008 and the “logFC AAK1” value ([5]; AAK1, accession Q2M218-1, experiment wp172, direction of change down) was −0.9755.
